# Measurements: patent US20050124631A1, “Inhibitors of polyq-aggregation” (priority 2001, published 2005)
smiles,measurement,value
"Cc1ccc(Cl)c2sc(N)nc12 [Example 2, 2-Amino-7-chloro-4-methylbenzothiazole]",melting point,206 °C
